Assay results published in patent publication US20250381185A1, “CDK4/PARP1 DUAL-TARGET INHIBITOR AND USE THEREOF” (YANBIAN UNIVERSITY, priority 2024, published 2025).

Experiments:
CDK4 = CDK4 (Homo sapiens, UniProt P11802); experiment: IC50 of dual-target inhibitors against CDK4; assay type: biochemical
Experimental: The effectiveness of the present application was verified through the following tests: • (1) IC50 values of the dual-target inhibitors (Examples 1-11) against CDK4 were determined.

PARP1 = PARP1 (Homo sapiens, UniProt P09874); experiment: IC50 of dual-target inhibitors against PARP1; assay type: biochemical
Chain of PARP1 (P09874 whole entry): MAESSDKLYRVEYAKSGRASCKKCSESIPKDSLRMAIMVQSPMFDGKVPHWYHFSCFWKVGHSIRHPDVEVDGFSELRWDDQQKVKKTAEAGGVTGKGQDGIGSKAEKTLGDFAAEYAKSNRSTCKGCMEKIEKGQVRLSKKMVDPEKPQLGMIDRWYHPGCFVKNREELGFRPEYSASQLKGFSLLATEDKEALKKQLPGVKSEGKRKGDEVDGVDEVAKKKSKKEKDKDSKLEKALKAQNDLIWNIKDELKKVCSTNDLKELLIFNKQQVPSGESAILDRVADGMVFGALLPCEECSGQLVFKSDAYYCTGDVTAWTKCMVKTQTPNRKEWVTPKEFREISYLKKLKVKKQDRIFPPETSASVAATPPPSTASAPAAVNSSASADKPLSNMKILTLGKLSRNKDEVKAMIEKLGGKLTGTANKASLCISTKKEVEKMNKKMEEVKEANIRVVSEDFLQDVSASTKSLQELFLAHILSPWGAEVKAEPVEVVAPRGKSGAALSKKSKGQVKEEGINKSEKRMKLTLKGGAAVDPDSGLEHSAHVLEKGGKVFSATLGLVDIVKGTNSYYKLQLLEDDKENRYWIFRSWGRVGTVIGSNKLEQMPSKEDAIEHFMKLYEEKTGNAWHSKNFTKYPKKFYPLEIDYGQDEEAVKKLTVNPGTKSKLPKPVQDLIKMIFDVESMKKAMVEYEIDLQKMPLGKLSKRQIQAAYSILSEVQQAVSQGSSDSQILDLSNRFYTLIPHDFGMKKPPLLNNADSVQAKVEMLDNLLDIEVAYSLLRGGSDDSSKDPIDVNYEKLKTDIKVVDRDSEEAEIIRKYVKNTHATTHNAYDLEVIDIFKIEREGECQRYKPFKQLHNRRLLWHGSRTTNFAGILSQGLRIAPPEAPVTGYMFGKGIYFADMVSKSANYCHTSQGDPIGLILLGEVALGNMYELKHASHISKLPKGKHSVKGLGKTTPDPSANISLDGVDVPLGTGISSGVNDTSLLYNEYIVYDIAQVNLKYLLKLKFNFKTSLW

Chain of CDK4 (P11802 whole entry): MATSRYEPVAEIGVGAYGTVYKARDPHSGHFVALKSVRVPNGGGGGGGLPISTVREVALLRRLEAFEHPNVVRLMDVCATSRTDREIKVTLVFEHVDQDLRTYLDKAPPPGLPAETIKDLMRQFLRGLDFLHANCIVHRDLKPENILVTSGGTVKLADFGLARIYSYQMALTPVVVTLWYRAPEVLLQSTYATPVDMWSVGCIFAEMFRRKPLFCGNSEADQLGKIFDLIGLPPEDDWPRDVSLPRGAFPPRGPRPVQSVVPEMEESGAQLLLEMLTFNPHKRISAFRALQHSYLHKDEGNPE
Chain of CDK4 (P24385 whole entry partner): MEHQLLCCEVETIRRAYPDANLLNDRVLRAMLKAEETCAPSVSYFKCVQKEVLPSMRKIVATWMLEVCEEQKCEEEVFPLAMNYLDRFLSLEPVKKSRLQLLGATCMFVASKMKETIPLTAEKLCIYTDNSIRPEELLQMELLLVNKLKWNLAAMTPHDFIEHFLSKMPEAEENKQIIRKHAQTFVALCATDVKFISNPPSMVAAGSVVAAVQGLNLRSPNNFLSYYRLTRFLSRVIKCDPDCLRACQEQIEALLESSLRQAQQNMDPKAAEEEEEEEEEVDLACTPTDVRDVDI

Row | IC50 (CDK4) [nM] | IC50 (PARP1) [nM] | Structure (SMILES)
1 | > 500 | 100 to 500 | CN(C)C(=O)c1cc2cnc(NNC(=O)c3cc(Cc4n[nH]c(=O)c5ccccc45)ccc3F)nc2n1C1CCCC1 [Compound D1]
2 | > 500 | < 10 | CN(C)C(=O)c1cc2cnc(NCCCCCCNC(=O)c3cc(Cc4n[nH]c(=O)c5ccccc45)ccc3F)nc2n1C1CCCC1 [Compound D6]
3 | > 500 | < 10 | CN(C)C(=O)c1cc2cnc(N3CCN(C(=O)c4cc(Cc5n[nH]c(=O)c6ccccc56)ccc4F)CC3)nc2n1C1CCCC1 [Compound D9]
4 | < 10 | 10 to 100 | CN(C)C(=O)c1cc2cnc(Nc3ccc(NC(=O)CNC(=O)c4cc(Cc5n[nH]c(=O)c6ccccc56)ccc4F)cc3)nc2n1C1CCCC1 [Compound D14]
5 | 100 to 500 | < 10 | CN(C)C(=O)c1cc2cnc(NCCNC(=O)CNC(=O)c3cc(Cc4n[nH]c(=O)c5ccccc45)ccc3F)nc2n1C1CCCC1 [Compound E1]
6 | 100 to 500 | 10 to 100 | CC(C)[C@H](NC(=O)c1cc(Cc2n[nH]c(=O)c3ccccc23)ccc1F)C(=O)NCCNc1ncc2cc(C(=O)N(C)C)n(C3CCCC3)c2n1 [Compound E2]
7 | > 500 | 10 to 100 | CN(C)C(=O)c1cc2cnc(NCCNC(=O)[C@H](Cc3c[nH]c4ccccc34)NC(=O)c3cc(Cc4n[nH]c(=O)c5ccccc45)ccc3F)nc2n1C1CCCC1 [Compound E3]
8 | > 500 | 10 to 100 | CN(C)C(=O)c1cc2nc(NCCNC(=O)[C@H](Cc3ccccc3)NC(=O)c3cc(Cc4n[nH]c(=O)c5ccccc45)ccc3F)ncc2n1C1CCCC1 [Compound E4]
9 | > 500 | 10 to 100 | CC(C)[C@H](NC(=O)c1cc(Cc2n[nH]c(=O)c3ccccc23)ccc1F)C(=O)NNc1ncc2c(cc(C(=O)N(C)C)n2C2CCCC2)n1 [Compound E8]
10 | > 500 | 10 to 100 | CN(C)C(=O)c1cc2cnc(NCCOC(=O)c3cc(Cc4n[nH]c(=O)c5ccccc45)ccc3F)nc2n1C1CCCC1 [Compound F1]
11 | > 500 | 10 to 100 | CN(C)C(=O)c1cc2cnc(NCCCOC(=O)c3cc(Cc4n[nH]c(=O)c5ccccc45)ccc3F)nc2n1C1CCCC1 [Compound F2]

Second part, the compound before the results:

Row | Structure (SMILES) | IC50 (CDK4) [nM] | IC50 (PARP1) [nM]
12 | Cc1nc2c(F)cc(-c3nc(Nc4cccc(Cc5n[nH]c(=O)c6ccccc56)c4)ncc3F)cc2n1C(C)C [Compound A1] | < 10 | 100 to 500
13 | Cc1nc2c(F)cc(-c3nc(Nc4ccc(C(=O)Nc5cccc(Cc6n[nH]c(=O)c7ccccc67)c5)cc4)ncc3F)cc2n1C(C)C [Compound A2] | < 10 | > 500
14 | Cc1nc2c(F)cc(-c3nc(Nc4ccc(CC(=O)Nc5cccc(Cc6n[nH]c(=O)c7ccccc67)c5)cc4)ncc3F)cc2n1C(C)C [Compound A3] | 10 to 100 | 10 to 100
15 | Cc1nc2c(F)cc(-c3nc(Nc4ccc(NC(=O)CCC(=O)Nc5cccc(Cc6n[nH]c(=O)c7ccccc67)c5)cc4)ncc3F)cc2n1C(C)C [Compound A4] | < 10 | 100 to 500
16 | Cc1nc2c(F)cc(-c3nc(Nc4cccc(C(=O)Nc5cccc(Cc6n[nH]c(=O)c7ccccc67)c5)c4)ncc3F)cc2n1C(C)C [Compound A5] | 10 to 100 | > 500
17 | Cc1nc2c(F)cc(-c3nc(Nc4ccc(Cc5n[nH]c(=O)c6ccccc56)cc4)ncc3F)cc2n1C(C)C [Compound B1] | < 10 | > 500
18 | Cc1nc2c(F)cc(-c3nc(Nc4ccc(NC(=O)c5cc(Cc6n[nH]c(=O)c7ccccc67)ccc5F)cc4)ncc3F)cc2n1C(C)C [Compound C1] | 10 to 100 | 100 to 500
19 | Cc1nc2c(F)cc(-c3nc(Nc4ccc(C(=O)N5CCN(c6ccc(NC(=O)c7cc(Cc8n[nH]c(=O)c9ccccc89)ccc7F)cc6)CC5)cc4)ncc3F)cc2n1C(C)C [Compound C2] | 10 to 100 | > 500
20 | Cc1nc2c(F)cc(-c3nc(Nc4ccc(C(=O)N5CCN(c6cccc(NC(=O)c7cc(Cc8n[nH]c(=O)c9ccccc89)ccc7F)c6)CC5)cc4)ncc3F)cc2n1C(C)C [Compound C3] | 10 to 100 | > 500
21 | Cc1nc2c(F)cc(-c3nc(Nc4ccc(N5CCN(C(=O)c6cc(Cc7n[nH]c(=O)c8ccccc78)ccc6F)CC5)cc4)ncc3F)cc2n1C(C)C [Compound C5] | < 10 | < 10
22 | Cc1nc2c(F)cc(-c3nc(Nc4ccc(CN5CCN(C(=O)c6cc(Cc7n[nH]c(=O)c8ccccc78)ccc6F)CC5)cc4)ncc3F)cc2n1C(C)C [Compound C6] | < 10 | 10 to 100
23 | Cc1nc2c(F)cc(-c3nc(Nc4ccc(C(=O)N5CCN(C(=O)c6cc(Cc7n[nH]c(=O)c8ccccc78)ccc6F)CC5)cc4)ncc3F)cc2n1C(C)C [Compound C7] | < 10 | 10 to 100
24 | Cc1nc2c(F)cc(-c3nc(Nc4cccc(C(=O)N5CCN(C(=O)c6cc(Cc7n[nH]c(=O)c8ccccc78)ccc6F)CC5)c4)ncc3F)cc2n1C(C)C [Compound C8] | 10 to 100 | 10 to 100
25 | Cc1nc2c(F)cc(-c3nc(Nc4ccc(CC(=O)N5CCN(C(=O)c6cc(Cc7n[nH]c(=O)c8ccccc78)ccc6F)CC5)cc4)ncc3F)cc2n1C(C)C [Compound C9] | < 10 | 10 to 100
